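Interpolation was linear, between the two tested concentrations surrounding the appropriate level; five concentrations were tested over 48 hours in 96-well plates. TGI: concentration producing complete growth inhibition.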

For the first experiment, the system named is NCI-H23 lung. Description: inhibition of tumour cell growth, NCI panel, 48 h.
Compound `CSc1nncc2[nH]c(C)nc12` registered a TGI of more than 100 µM.

With `COc1ccc(OC)c(N2C(=O)CSC2c2cc(OC)c(OC)c(OC)c2)c1` (stereo not given), the TGI is more than 100 µM.

For the compound `COc1ccc(C(OC(C)=O)C2C(=C(C#N)C#N)c3ccccc3C2=C(C#N)C#N)cc1` (stereo not given), the TGI came to 85.7 µM.

The compound `CCOC(=O)C1=C(N)Oc2ccc(Br)cc2C1C(C#N)C(=O)OCC` (stereo not given) showed a TGI of 47.3 µM.

Regarding `CC(=O)Nc1ccc(-c2nc3ccccc3s2)cc1`, the TGI was more than 100 µM.

Take `COc1ccc(-c2nc(SCC(=O)N/N=C/c3ccc(O)c(OC)c3)[nH]c2-c2ccc(OC)cc2)cc1`: the TGI was found to be 49.2 µM.

`CCOP(=O)(O)C(C)(C)NC`: the TGI was more than 100 µM.

`CC(/C=N\NC(=S)N1CCCCC1)=N/NC(=S)N1CCCCC1` yielded a TGI of 19.2 µM.

Compound `Cc1ccc(C(=O)N/N=C(\N=Nc2ccccc2[N+](=O)[O-])c2ccc(N(C)C)cc2)cc1` returned a TGI of more than 100 µM.

`CC1C[C@]2(C)C(=O)Nc3ccccc3[C@@H]2Nc2ccccc21` (stereo not given in full): the TGI was 54.8 µM.

`CC(C)(C)C(=O)OC(N)/C=C/c1ccccc1` (stereo not given) showed a TGI of more than 100 µM.

Compound `O=c1c2c(-c3ccccc3)onc2n(-c2ccccc2)c(=O)n1-c1ccccc1` yielded a TGI of 47.8 µM.

The next experiment relates to OVCAR-4 ovarian. Kind of experiment: inhibition of tumour cell growth, NCI panel, 48 h.
On to `CC(CCC#N)(CCC#N)C(=O)CC(O)(C(F)(F)F)C(F)(F)F`, for which the TGI is 8.01 µM.

In turn, `Cc1c(O)c(C)c2c(C)cn(C(=O)C(C)(C)C)c2c1C` displayed a TGI of 27 µM.

As for `COc1ccc(-c2c(C#N)c(O)n(NS(=O)(=O)c3ccc(C)cc3)c(=O)c2C#N)cc1`, the TGI was more than 100 µM.

`O=C1C[C@H]2[C@@H](O1)[C@@H](O)CN1C(=O)c3ccccc3[C@H]21` yielded a TGI of more than 100 µM.

`CSc1nncc2[nH]c(C)nc12` registered a TGI of more than 100 µM.

The compound `COc1ccc(OC)c(N2C(=O)CSC2c2cc(OC)c(OC)c(OC)c2)c1` (stereo not given) returned a TGI of more than 100 µM.

`COc1ccc(C(OC(C)=O)C2C(=C(C#N)C#N)c3ccccc3C2=C(C#N)C#N)cc1` (stereo not given) yielded a TGI of more than 100 µM.

`CCOC(=O)C1=C(N)Oc2ccc(Br)cc2C1C(C#N)C(=O)OCC` (stereo not given) gave a TGI of 44.8 µM.

Turning to `CC(=O)Nc1ccc(-c2nc3ccccc3s2)cc1`, the TGI is more than 100 µM.

In the case of `COc1ccc(-c2nc(SCC(=O)N/N=C/c3ccc(O)c(OC)c3)[nH]c2-c2ccc(OC)cc2)cc1`, the TGI is more than 100 µM.

`CCOP(=O)(O)C(C)(C)NC` showed a TGI of more than 100 µM.

For `CC(/C=N\NC(=S)N1CCCCC1)=N/NC(=S)N1CCCCC1`, the TGI was 15.8 µM.

`Cc1ccc(C(=O)N/N=C(\N=Nc2ccccc2[N+](=O)[O-])c2ccc(N(C)C)cc2)cc1` registered a TGI of more than 100 µM.

`CC1C[C@]2(C)C(=O)Nc3ccccc3[C@@H]2Nc2ccccc21` (stereo not given in full) registered a TGI of more than 100 µM.

`CC(C)(C)C(=O)OC(N)/C=C/c1ccccc1` (stereo not given) returned a TGI of more than 100 µM.

In turn, `O=c1c2c(-c3ccccc3)onc2n(-c2ccccc2)c(=O)n1-c1ccccc1` came in with a TGI of more than 100 µM.

For another experiment, the system named is RXF 393 renal. Description: inhibition of tumour cell growth, NCI panel, 48 h.
`CC(CCC#N)(CCC#N)C(=O)CC(O)(C(F)(F)F)C(F)(F)F`: the TGI came out at 5.03 µM.

`Cc1c(O)c(C)c2c(C)cn(C(=O)C(C)(C)C)c2c1C` registered a TGI of 41.6 µM.

Compound `COc1ccc(-c2c(C#N)c(O)n(NS(=O)(=O)c3ccc(C)cc3)c(=O)c2C#N)cc1` gave a TGI of more than 100 µM.

Turning to `O=C1C[C@H]2[C@@H](O1)[C@@H](O)CN1C(=O)c3ccccc3[C@H]21`, the TGI is more than 100 µM.

As for `COc1ccc(C(OC(C)=O)C2C(=C(C#N)C#N)c3ccccc3C2=C(C#N)C#N)cc1` (stereo not given), the TGI was more than 100 µM.

Turning to `CCOC(=O)C1=C(N)Oc2ccc(Br)cc2C1C(C#N)C(=O)OCC` (stereo not given), the TGI was 22 µM.

Regarding `CC(=O)Nc1ccc(-c2nc3ccccc3s2)cc1`, the TGI stood at 74.4 µM.

`COc1ccc(-c2nc(SCC(=O)N/N=C/c3ccc(O)c(OC)c3)[nH]c2-c2ccc(OC)cc2)cc1` displayed a TGI of 36.5 µM.

Take `CCOP(=O)(O)C(C)(C)NC`: the TGI was more than 100 µM.

Turning to `CC(/C=N\NC(=S)N1CCCCC1)=N/NC(=S)N1CCCCC1`, the TGI is 4.28 µM.

In turn, `CC1C[C@]2(C)C(=O)Nc3ccccc3[C@@H]2Nc2ccccc21` (stereo not given in full) had a TGI of 77.9 µM.

Regarding `CC(C)(C)C(=O)OC(N)/C=C/c1ccccc1` (stereo not given), the TGI is more than 100 µM.

As to `O=c1c2c(-c3ccccc3)onc2n(-c2ccccc2)c(=O)n1-c1ccccc1`, the TGI is more than 100 µM.

The test system of a further experiment is SF-268 CNS. Kind of experiment: inhibition of tumour cell growth, NCI panel, 48 h.
`CC(CCC#N)(CCC#N)C(=O)CC(O)(C(F)(F)F)C(F)(F)F`: the TGI is more than 58.8 µM.

In the case of `Cc1c(O)c(C)c2c(C)cn(C(=O)C(C)(C)C)c2c1C`, the TGI was more than 100 µM.

As to `COc1ccc(-c2c(C#N)c(O)n(NS(=O)(=O)c3ccc(C)cc3)c(=O)c2C#N)cc1`, the TGI was more than 100 µM.

Compound `O=C1C[C@H]2[C@@H](O1)[C@@H](O)CN1C(=O)c3ccccc3[C@H]21` returned a TGI of more than 100 µM.

`COc1ccc(OC)c(N2C(=O)CSC2c2cc(OC)c(OC)c(OC)c2)c1` (stereo not given) showed a TGI of more than 100 µM.

On to `COc1ccc(C(OC(C)=O)C2C(=C(C#N)C#N)c3ccccc3C2=C(C#N)C#N)cc1` (stereo not given), for which the TGI is more than 100 µM.

Turning to `CCOC(=O)C1=C(N)Oc2ccc(Br)cc2C1C(C#N)C(=O)OCC` (stereo not given), the TGI was found to be 38.5 µM.

The compound `CC(=O)Nc1ccc(-c2nc3ccccc3s2)cc1` came in with a TGI of more than 100 µM.

In the case of `COc1ccc(-c2nc(SCC(=O)N/N=C/c3ccc(O)c(OC)c3)[nH]c2-c2ccc(OC)cc2)cc1`, the TGI was more than 100 µM.

`CCOP(=O)(O)C(C)(C)NC` registered a TGI of more than 100 µM.

Compound `CC(/C=N\NC(=S)N1CCCCC1)=N/NC(=S)N1CCCCC1` had a TGI of 14.6 µM.

The compound `Cc1ccc(C(=O)N/N=C(\N=Nc2ccccc2[N+](=O)[O-])c2ccc(N(C)C)cc2)cc1` had a TGI of more than 100 µM.

Turning to `CC1C[C@]2(C)C(=O)Nc3ccccc3[C@@H]2Nc2ccccc21` (stereo not given in full), the TGI was more than 100 µM.

Regarding `O=c1c2c(-c3ccccc3)onc2n(-c2ccccc2)c(=O)n1-c1ccccc1`, the TGI is more than 100 µM.

A further experiment has as its system SF-539 CNS. Description: inhibition of tumour cell growth, NCI panel, 48 h.
In turn, `CC(CCC#N)(CCC#N)C(=O)CC(O)(C(F)(F)F)C(F)(F)F` registered a TGI of 8.75 µM.

`Cc1c(O)c(C)c2c(C)cn(C(=O)C(C)(C)C)c2c1C` registered a TGI of 30 µM.

The compound `COc1ccc(-c2c(C#N)c(O)n(NS(=O)(=O)c3ccc(C)cc3)c(=O)c2C#N)cc1` returned a TGI of more than 100 µM.

Take `O=C1C[C@H]2[C@@H](O1)[C@@H](O)CN1C(=O)c3ccccc3[C@H]21`: the TGI is more than 100 µM.

Compound `CSc1nncc2[nH]c(C)nc12` came in with a TGI of more than 100 µM.

The compound `COc1ccc(OC)c(N2C(=O)CSC2c2cc(OC)c(OC)c(OC)c2)c1` (stereo not given) displayed a TGI of more than 100 µM.

`COc1ccc(C(OC(C)=O)C2C(=C(C#N)C#N)c3ccccc3C2=C(C#N)C#N)cc1` (stereo not given) showed a TGI of 49.7 µM.

As to `CCOC(=O)C1=C(N)Oc2ccc(Br)cc2C1C(C#N)C(=O)OCC` (stereo not given), the TGI stood at 40.3 µM.

`CC(=O)Nc1ccc(-c2nc3ccccc3s2)cc1` gave a TGI of 67.1 µM.

On to `COc1ccc(-c2nc(SCC(=O)N/N=C/c3ccc(O)c(OC)c3)[nH]c2-c2ccc(OC)cc2)cc1`, for which the TGI worked out at 36.5 µM.

Take `CCOP(=O)(O)C(C)(C)NC`: the TGI was more than 100 µM.

Regarding `CC(/C=N\NC(=S)N1CCCCC1)=N/NC(=S)N1CCCCC1`, the TGI was more than 100 µM.

In turn, `Cc1ccc(C(=O)N/N=C(\N=Nc2ccccc2[N+](=O)[O-])c2ccc(N(C)C)cc2)cc1` came in with a TGI of more than 100 µM.

Consider `CC1C[C@]2(C)C(=O)Nc3ccccc3[C@@H]2Nc2ccccc21` (stereo not given in full), for which the TGI was 63.5 µM.

The compound `CC(C)(C)C(=O)OC(N)/C=C/c1ccccc1` (stereo not given) gave a TGI of more than 100 µM.
